Drawing on patent publication US20100137313A1 (ASTRAZENECA AB, priority 2008, published 2010), this text covers inhibition for 29 compounds.

S. pneumoniae Topoisomerase IV ATPase (ParE), sequence (Q59961 whole entry): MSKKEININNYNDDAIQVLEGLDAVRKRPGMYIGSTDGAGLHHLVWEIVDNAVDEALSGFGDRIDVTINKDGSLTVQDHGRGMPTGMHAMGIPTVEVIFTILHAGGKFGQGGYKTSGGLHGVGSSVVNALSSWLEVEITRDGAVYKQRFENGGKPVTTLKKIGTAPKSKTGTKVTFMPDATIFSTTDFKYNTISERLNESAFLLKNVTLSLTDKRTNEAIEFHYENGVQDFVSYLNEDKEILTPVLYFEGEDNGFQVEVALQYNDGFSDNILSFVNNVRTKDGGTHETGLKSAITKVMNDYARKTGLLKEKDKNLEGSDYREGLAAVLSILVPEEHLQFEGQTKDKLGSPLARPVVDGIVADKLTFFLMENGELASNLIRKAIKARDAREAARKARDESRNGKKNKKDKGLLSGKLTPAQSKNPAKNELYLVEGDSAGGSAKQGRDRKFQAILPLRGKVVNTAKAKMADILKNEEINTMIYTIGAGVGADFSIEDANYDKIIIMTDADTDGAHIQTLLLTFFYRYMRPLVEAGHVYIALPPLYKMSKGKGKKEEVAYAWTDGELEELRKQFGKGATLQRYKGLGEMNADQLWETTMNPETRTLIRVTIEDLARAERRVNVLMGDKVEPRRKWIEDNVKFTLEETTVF

For this test, the target named is S. pneumoniae Topoisomerase IV ATPase (ParE) (Streptococcus pneumoniae serotype 4, UniProt Q59961). Description: S. pneumoniae Topoisomerase IV ATPase inhibition. The conditions noted are these: values marked * are an average of two or more data points, read-out: % Inh (13 μM) of S. pneumoniae Topoisomerase IV ATPase. It counts as biochemical. In a few lines:
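Phosphate-release ATPase assay: 1.25 nM ParE, 160 μM ATP, DNA-stimulated. Quench with malachite green/molybdate in 1 M HCl, read 650 nm; IC50 from 10-point dose series.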
In the case of `CC1CCC(C)N1c1nc(Nc2ccc(F)c(Cl)c2)ncc1-c1cncc(C(=O)O)c1` (centres unmarked) [Example 252, 5-[2-[(3-chloro-4-fluorophenyl)amino]-4-(2,5-dimethylpyrrolidin-1-yl)pyrimidin-5-yl]pyridine-3-carboxylic acid], the inhibition at 13 µM came to 81.8%.

On to `CNC(=O)/C=C/c1cccc(-c2cnc(Nc3ccc(F)c(Cl)c3)nc2N2CCOCC2)c1` [Example 375, (E)-3-(3-(2-(3-chloro-4-fluorophenylamino)-4-morpholinopyrimidin-5-yl)phenyl)-1H-methylacrylamide], for which the inhibition at 13 µM stood at 75.9%.

`O=C(O)c1cncc(-c2cnc(Nc3ccc(F)c(Cl)c3)nc2NCc2ccncc2)c1` [Example 224, 5-{2-(3-Chloro-4-fluoro-phenylamino)-4-[(pyridin-4-ylmethyl)-amino]-pyrimidin-5-yl}-nicotinic acid]: the inhibition at 13 µM was 78.5%.

For the compound `O=C(O)c1cncc(-c2cnc(Nc3ccc(F)c(Cl)c3)nc2-n2ccnn2)c1` [Example 329, 5-{2-[(3-chloro-4-fluorophenyl)amino]-4-(1H-1,2,3-triazol-1-yl)pyrimidin-5-yl}pyridine-3-carboxylic acid], the inhibition at 13 µM was 116%.

Take `Cc1cc(C(F)(F)F)nn1-c1nc(Nc2ccc(F)c(Cl)c2)ncc1-c1cnc(OCCN2CCN(C)CC2)c(C(=O)O)c1` [Example 963, 5-(2-(3-chloro-4-fluorophenylamino)-4-(5-methyl-3-(trifluoromethyl)-1H-pyrazol-1-yl)pyrimidin-5-yl)-2-(2-(4-methylpiperazin-1-yl)ethoxy)nicotinic acid]: the inhibition at 13 µM amounted to 100%.

Take `CN(C)CCCNc1nc(Nc2ccc(F)c(Cl)c2)ncc1-c1cccc([N+](=O)[O-])c1` [Example 14, N^2-(3-chloro-4-fluorophenyl)-N^4-[3-(dimethylamino)propyl]-5-(3-nitrophenyl) pyrimidin-2,4-diamine]: the inhibition at 13 µM came to 100%.

For the compound `CCOC(=O)c1cncc(-c2cnc(Nc3ccc(F)c(Cl)c3)nc2NCc2cncn2C)c1` [Example 145, ethyl 5-(2-(3-chloro-4-fluorophenylamino)-4-((1-methyl-1H-imidazol-5-yl)methylamino)pyrimidin-5-yl) nicotinate], the inhibition at 13 µM was found to be 77.4%.

Regarding `O=C(O)/C=C/c1cccc(-c2cnc(Nc3ccc(F)c(Cl)c3)nc2N[C@@H]2CCOC2)c1` [Example 295, (R,E)-3-(3-(2-(3-chloro-4-fluorophenylamino)-4-(tetrahydrofuran-3-ylamino)pyrimidin-5-yl)phenyl)acrylic acid], the inhibition at 13 µM came out at 82.7%.

Consider `CCOC(=O)c1cncc(-c2cnc(Nc3ccc(F)c(Cl)c3)nc2N2CCCC2C)c1` (centres unmarked) [Example 124, ethyl 5-[2-[(3-chloro-4-fluorophenyl)amino]-4-(2-methylpyrrolidin-1-yl)pyrimidin-5-yl]pyridine-3-carboxylate], for which the inhibition at 13 µM came to 31.3%.

For the compound `Cc1cc(-c2nccs2)nn1-c1nc(Nc2ccc(F)c(Cl)c2)ncc1-c1cccc(/C=C/C(=O)O)c1` [Example 562, (2E)-3-(3-{2-[(3-chloro-4-fluorophenyl)amino]-4-[5-methyl-3-(1,3-thiazol-2-yl)-1H-pyrazol-1-yl]pyrimidin-5-yl}phenyl)prop-2-enoic acid], the inhibition at 13 µM was found to be 100%.

Consider `CONC(=O)c1cncc(-c2cnc(Nc3ccc(F)c(Cl)c3)nc2-n2ccc(-c3ccsc3)n2)c1` [Example 548, 5-{2-[(3-chloro-4-fluorophenyl)amino]-4-[3-(thiophen-3-yl)-1H-pyrazol-1-yl]pyrimidin-5-yl}-N-methoxypyridine-3-carboxamide], for which the inhibition at 13 µM stood at 95%.

With `O=C(O)/C=C/c1cncc(-c2cnc(Nc3ccc(F)c(Cl)c3)nc2-n2ccc(C(F)(F)F)n2)c1` [Example 1156, (E)-3-(5-(2-(3-chloro-4-fluorophenylamino)-4-(3-(trifluoromethyl)-1H-pyrazol-1-yl)pyrimidin-5-yl)pyridin-3-yl)acrylic acid], the inhibition at 13 µM is 88%.

As to `COc1cc(C#N)cc(Nc2ncc(-c3cnc(OC)c(C(=O)O)c3)c(-n3ccc(C(F)(F)F)n3)n2)c1` [Example 736, 5-{2-[(3-cyano-5-methoxyphenyl)amino]-4-[3-(trifluoromethyl)-1H-pyrazol-1-yl]pyrimidin-5-yl}-2-methoxypyridine-3-carboxylic acid], the inhibition at 13 µM worked out at 100%.

`O=C(O)c1cncc(-c2cnc(Nc3ccc(F)c(Cl)c3)nc2NCCc2c[nH]cn2)c1` [Example 257, 5-(2-[(3-chloro-4-fluorophenyl)amino]-4-{[2-(1H-imidazol-4-yl)ethyl]amino}pyrimidin-5-yl)pyridine-3-carboxylic acid]: the inhibition at 13 µM was 83.8%.

As to `O=C(O)c1cncc(-c2cnc(Nc3ccc(F)c(Cl)c3)nc2-n2nnc3ccccc32)c1` [Example 318, 5-{4-(1H-benzotriazol-1-yl)-2-[(3-chloro-4-fluorophenyl)amino]pyrimidin-5-yl}pyridine-3-carboxylic acid], the inhibition at 13 µM came out at 92.3%.

With `COc1cc(Nc2ncc(-c3cnc(OCCCS(C)(=O)=O)c(C(=O)O)c3)c(-n3ccc(C(F)(F)F)n3)n2)cc(OC)c1` [Example 968, 5-(2-(3,5-dimethoxyphenylamino)-4-(3-(trifluoromethyl)-1H-pyrazol-1-yl)pyrimidin-5-yl)-2-(3-(mehtylsulfonyl)propoxy)nicotinic acid], the inhibition at 13 µM stood at 94%.

For `Fc1ccc(Nc2ncc(-c3cncnc3)c(-n3cnc(Cl)c3Cl)n2)cc1Cl` [Example 72, N-(3-chloro-4-fluorophenyl)-4-(4,5-dichloro-1H-imidazol-1-yl)-5,5′-bipyrimidin-2-amine], the inhibition at 13 µM is 52.6%.

Turning to `CN(C)CCCNc1nc(Nc2ccc(F)c(Cl)c2)ncc1-c1ccc2cc[nH]c2c1` [Example 4, N^2-(3-chloro-4-fluorophenyl)-N^4-(3-(dimethylamino)propyl)-5-(1H-indol-6-yl)pyrimidine-2,4-diamine], the inhibition at 13 µM amounted to 93.1%.

As to `COc1ncc(-c2cnc(Nc3ccc(F)c(Cl)c3)nc2NCCc2cccnc2)cn1` [Example 460, N^2-(3-chloro-4-fluorophenyl)-2′-methoxy-N^4-[2-(pyridin-3-yl)ethyl]-5,5′-bipyrimidine-2,4-diamine], the inhibition at 13 µM was 100%.

Regarding `CCn1cc(-c2cnc(Nc3cc(C)cc(OC)c3)nc2-n2ccc(C(F)(F)F)n2)cc(C(=O)NS(C)(=O)=O)c1=O` [Example 1175, 1-ethyl-5-{2-[(3-methoxy-5-methylphenyl)amino]-4-[3-(trifluoromethyl)-1H-pyrazol-1-yl]pyrimidin-5-yl}-N-(methylsulfonyl)-2-oxo-1,2-dihydropyridine-3-carboxamide], the inhibition at 13 µM turned out to be 99%.

As to `COc1cc(Nc2ncc(-c3cnc(OC)c(C(=O)NCCS(C)(=O)=O)c3)c(-n3nc(C(F)(F)F)cc3C)n2)cc(OC)c1` [Example 812, 5-{2-[(3,5-dimethoxyphenyl)amino]-4-[5-methyl-3-(trifluoromethyl)-1H-pyrazol-1-yl]pyrimidin-5-yl}-2-methoxy-N-[2-(methylsulfonyl)ethyl]pyridine-3-carboxamide], the inhibition at 13 µM was 100%.

Regarding `COc1ccc(-c2cnc(Nc3ccc(F)c(Cl)c3)nc2NCCCN(C)C)cn1` [Example 18, N^2-(3-chloro-4-fluorophenyl)-N^4-[3-(dimethylamino)propyl]-5-(6-methoxy-pyridin-3-yl)pyrimidin-2,4-diamine], the inhibition at 13 µM is 96.6%.

Take `COc1cc(Nc2ncc(-c3cncc(C(=O)NCC(O)CO)c3)c(-n3nc(C(F)(F)F)cc3C)n2)cc(C(F)(F)F)c1` (centres unmarked) [Example 936, N-(2,3-dihydroxypropyl)-5-(2-(3-methoxy-5-(trifluoromethyl)phenylamino)-4-(5-methyl-3-(trifluoromethyl)-1H-pyrazol-1-yl)pyrimidin-5-yl)nicotinamide]: the inhibition at 13 µM amounted to 100%.

`CONC(=O)c1cncc(-c2cnc(Nc3ccc(F)c(Cl)c3)nc2-n2ccc(NC(C)=O)n2)c1` [Example 549, 5-{4-[3-(acetylamino)-1H-pyrazol-1-yl]-2-[(3-chloro-4-fluorophenyl)amino]-pyrimidin-5-yl}-N-methoxypyridine-3-carboxamide]: the inhibition at 13 µM stood at 94%.

Turning to `O=C(O)/C=C/c1cccc(-c2cnc(Nc3ccc(F)c(Cl)c3)nc2-n2ccc(C3CC3)n2)c1` [Example 875, (E)-3-(3-(2-(3-chloro-4-fluorophenylamino)-4-(3-cyclopropyl-1H-pyrazol-1-yl)pyrimidin-5-yl)phenyl)acrylic acid], the inhibition at 13 µM was 98%.

For the compound `COc1cc(Nc2ncc(-c3cc(C(=O)O)c(=O)n(CCS(C)(=O)=O)c3)c(-n3ccc(C(F)(F)F)n3)n2)cc(OC)c1` [Example 1095, 5-(2-(3,5-dimethoxyphenylamino)-4-(3-(trifluoromethyl)-1H-pyrazol-1-yl)pyrimidin-5-yl)-1-(2-(methylsulfonyl)ethyl)-2-oxo-1,2-dihydropyridine-3-carboxylic acid], the inhibition at 13 µM turned out to be 100%.

Consider `CCOC(=O)c1cncc(-c2cnc(Nc3ccc(F)c(Cl)c3)nc2N2CCCCC2)c1` [Example 152, ethyl 5-(2-(3-chloro-4-fluorophenylamino)-4-(piperidin-1-yl)pyrimidin-5-yl)nicotinate], for which the inhibition at 13 µM amounted to 0.54%.

On to `CCOC(=O)c1cc2cc(-c3cnc(Nc4ccc(F)c(Cl)c4)nc3NCCCOC)ccc2[nH]1` [Example 1052, Ethyl 5-(2-(3-chloro-4-fluorophenylamino)-4-(3-methoxyproylamino)pyrimidin-5-yl)-1H-indole-2-carboxylate], for which the inhibition at 13 µM was 0%.

As for `O=C(O)/C=C/c1cccc(-c2cnc(Nc3ccc(F)c(Cl)c3)nc2-n2cccn2)c1` [Example 1120, (E)-3-[3-[2-[(3-chloro-4-fluorophenyl)amino]-4-pyrazol-1-ylpyrimidin-5-yl]phenyl]prop-2-enoic acid], the inhibition at 13 µM was found to be 79%.
